Reference: patent publication US6376671B1, “2-sulfamoylbenzoic acid derivatives” (Kaken Pharmaceutical Co., Ltd., priority 1997, dated 2002)

Tests used:
[1] = molecular target: T1, LTD4 receptor (Cavia porcellus, UniProt Q2NNR5); test: LTD4 antagonistic effects: LTD4-induced constriction of isolated guinea pig ileum preparations; type: cell-based; settings: LTD4 0.05-3.5 ng/ml cumulative, 5 min pre-treatment, Van Rossum's method
T1 construct: the ilea were excised and made into ileum preparations; from tissue; host or cells: guinea pig ileum
T1 sequence (Q2NNR5 1-340): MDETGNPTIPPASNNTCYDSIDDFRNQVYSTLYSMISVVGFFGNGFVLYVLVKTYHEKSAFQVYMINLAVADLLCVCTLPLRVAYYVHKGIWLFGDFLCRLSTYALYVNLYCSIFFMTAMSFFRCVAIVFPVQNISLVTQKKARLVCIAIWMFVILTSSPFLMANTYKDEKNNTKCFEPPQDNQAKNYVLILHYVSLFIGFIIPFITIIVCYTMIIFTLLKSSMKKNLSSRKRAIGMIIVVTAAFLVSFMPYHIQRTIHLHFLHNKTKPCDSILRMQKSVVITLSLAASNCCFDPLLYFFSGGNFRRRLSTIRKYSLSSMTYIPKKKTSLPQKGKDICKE
Experimental: Guinea pigs were bled to death, and the ilea were excised and made into ileum preparations. The ileum preparations were suspended with a 1 g load in Magnus tubes filled with 2 ml Tyrode solution maintained at 37° C. under aeration with a 95% O2-5% CO2 gas mixture, and LTD4-induced constrictions were isotonically recorded.
After equilibration of the tonuses of the ilea, constrictive responses to cumulative addition of 0.05-3.5 ng/ml LTD4 were observed. After the constrictive responses reached equilibrium, LTD4 was added again cumulatively 5 minutes after pre-treatment with a test substance to induce constriction. The pA2 values were calculated in accordance with Van Rossum's method.

[2] = test system: ICR mice; test: Acute toxicity test in ICR mice; type: in vivo, mouse
[3] = test system: passively sensitized guinea pigs; test: Antiasthmatic effects: immediate asthmatic response of passively sensitized guinea pigs (airway resistance); type: in vivo, guinea pig; settings: 3 mg/kg i.v. 5 min before antigen inhalation (1% ovalbumin); airway resistance 5 min after inhalation
Experimental: The antiasthmatic effects were evaluated by the immediate asthmatic responses of passively sensitized guinea pigs. The previous day, the guinea pigs were sensitized by intravenous injections of a 10-fold diluted anti-DNP-ovalbumin guinea pig serum (guinea pig PCA titer; X1024) on the ears. The day of the test, after pre-treatment with pyrilamine (10 mg/kg i.p.), normal airway resitances were measured with a double flow plethysmograph in accordance with Pennock et al. The test substances (3 mg/kg) in DMSO were dissolved in 50% normal guinea pig serum-saline and intravenously injected from the ear vein 5 minutes before inhalation of the antigen. Immediate asthmatic responses were induced by 3 minutes of inhalational exposure to 1% ovalbumin in saline as the antigen from an ultrasonic neblizer, and the airway resistances were measured 5 minutes (4 to 6 minutes) after the inhalation. The results are expressed by the inhibition rates given by the following expression:
Inhibition rate (%)=(1−(A−B)/(C−D))×100
A: the airway resistance with a test substance after inhalation of the antigen,
B: the airway resistance with a test substance before inhalation of the antigen,
C: the airway resistance with a control after inhalation of the antigen,
D: the airway resistance with a control before inhalation of the antigen.

[4] = molecular target: T2, TXA2 receptor (Cavia porcellus, UniProt A0A286Y4I8); test: TXA2 antagonistic effects: U-46619-induced constriction of isolated guinea pig tracheal muscle strips; type: cell-based; settings: U-46619 cumulative, 5 min pre-treatment, Van Rossum's method
T2 construct: the tracheae were excised and made into tracheal muscle strips; from tissue; host or cells: guinea pig tracheal muscle strips
T2 sequence (A0A286Y4I8 1-347): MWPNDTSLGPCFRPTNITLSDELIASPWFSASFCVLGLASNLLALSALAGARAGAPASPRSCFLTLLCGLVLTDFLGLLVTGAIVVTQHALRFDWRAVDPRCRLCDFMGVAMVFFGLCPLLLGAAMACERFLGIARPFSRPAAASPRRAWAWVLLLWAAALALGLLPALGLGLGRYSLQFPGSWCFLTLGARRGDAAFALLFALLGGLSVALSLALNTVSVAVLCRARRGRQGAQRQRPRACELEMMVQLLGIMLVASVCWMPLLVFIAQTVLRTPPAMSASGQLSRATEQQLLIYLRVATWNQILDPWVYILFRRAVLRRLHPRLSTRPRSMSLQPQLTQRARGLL
Experimental: Guinea pigs were bled to death, and the tracheae were excised and made into tracheal muscle strips in accordance with Takagi et al. The strips were suspended with a 1 g load in Magnus tubes filled with 2 ml Tyrode solution maintained at 37° C. under aeration with a 95% O2-5% CO2 gas mixture, and U-46619-induced constrictions were isotonically recorded.
After equilibration of the tonuses of the strips, constrictive responses to cumulative addition of 10^−10−[…] U-46619 were observed. After the constrictive responses reached equilibrium, U-46619 was added again cumlatively 5 minutes after pre-treatment with a test substance to induce constriction. The pA2 values were calculated in accordance with Van Rossum's method.

Compound	LTD4 inhibitory effect (pA2) [1]	Acute toxicity (mortality), intravenous ([2]; intravenously 100 mg/kg)	Acute toxicity (mortality), oral ([2]; orally 1000 mg/kg)	Antiasthmatic effect Inhibition rate (%) [3] [%]	TXA2 inhibitory effect (pA2) [4]	Kb ([1]; read-out: LTD4 inhibitory effect (pA2) (converted)) [nM]	Kb ([4]; read-out: TXA2 inhibitory effect (pA2) (converted)) [nM]
CC(C)c1csc(COc2cccc(CN(CCCCNS(=O)(=O)c3ccc(Cl)cc3)S(=O)(=O)c3ccccc3C(=O)O)c2)n1 [compound 1, 2-{N-[4-(4-chlorobenzenesulfonylamino)butyl]-N-{3-[(4-isopropyl-2-thiazolyl)methoxy]benzyl}}sulfamoylbenzoic acid]	9.73	none of the mice died	none of the mice died	53.5	8.30		
CC(C)c1csc(COc2cccc(CN(CCCCNS(=O)(=O)c3ccc(Cl)cc3)S(=O)(=O)c3ccccc3-c3nnn[nH]3)c2)n1 [compound 91, 5-{2-{N-[4-(4-chlorobenzenesulfonylamino)butyl]-N-{3-[(4-isopropyl-2-thiazolyl)methoxy]benzyl}}sulfamoylphenyl}-1H-tetrazole]						0.891	18.6
